Results reported in patent US20210338645A1, “SOLID DISPERSION OF RIFAMYCIN-NITROIMIDAZOLE COUPLING MOLECULE AND APPLICATION THEREOF” (TenNor Therapeutics Limited, priority 2018, published 2021).
Where two headings read alike, the source gives them in different places.

Assays:
Format in all cases: physicochemical
[1] = Dissolution of binary solid dispersion film in simulated gastric fluid of pH 1.2; settings: simulated gastric fluid pH 1.2, 25° C.
Experimental: (§1) Preparation of binary solid dispersion (ASD for short): About 25 mg of rifaomycin-nitroimidazole coupling molecules and about 25 mg of carrier excipient are weighed, and placed into the same 40 mL glass bottle. The open 40 mL glass bottle is covered with perforated aluminum-foil paper to prevent cross contamination and placed into a 35° C. vacuum drying oven for rapid volatilization. After 40 hours of vacuum and full drying, the binary dispersion forms a purple film on the bottom of the bottle to obtain a binary solid dispersion film.
(§2) The prepared binary solid dispersion film is subjected to dissolution experiments: In the 40 mL glass bottle containing solid dispersion films, 0.5 mL of simulated gastric fluid of pH 1.2 and […] of acetate buffer of pH 4.5 are respectively taken as dissolution media (25° C.) (the target concentration is 50 mg ml), to seal the glass bottle and complete the vortex processing for 5 seconds; 100 μL of liquid is taken as an initial sampling point (0 minute) and then the glass bottle is shaken by a rocking bed; 100 μL of solution is taken into centrifugal tubes respectively after 10 minutes, 30 minutes, and 60 minutes, to perform the centrifugation at a rotational speed of 14000 rpm for 5 minutes; and the supernatant is taken into a small liquid phase bottle and is diluted with the acetonitrile to a suitable multiple, and high-performance liquid chromatograph is taken into the glass bottle, to record a chromatogram map and calculate the concentration according to the peak area by an external standard method.

[2] = Dissolution of spray-dried solid dispersion powder in acetate buffer of pH 4.5 (target 4 mg/mL); settings: acetate buffer pH 4.5, 37° C.
Experimental: About 344 mg of prepared solid dispersions are taken and poured into a 40 mL glass bottle; 20 mL of acetate buffer of pH 4.5 (preheated to 37° C.) is used as the dissolution medium (the target concentration of the rifaomycin-nitroimidazole coupling molecule is 4 mg/mL); the glass bottle is sealed; and the above materials are whirled for 5 seconds and placed on a heated magnetic stirrer at 37° C. after a stir bar is inserted. The rotational speed is 300 rpm. After 10 min, 20 min, 40 min, 60 min, 90 min, 120 min and 180 min, 500 μL of the liquid is taken into the centrifuge tube and centrifuged at 14000 rpm for 3 min. The supernatant liquid is taken into the liquid phase bottle and diluted to 10 times with acetonitrile as the solution to be tested, the high performance liquid chromatography is injected and the chromatogram is recorded, and the concentration is calculated by the peak area using the external standard method.

[3] = Two-hour solubility of API in functional excipient solution
[4] = as above; settings: for Two-hour Dissolution Rate: 37° C.; for increase of two-hour dissolution rate compared to API powder control: pH 4.5 system
Experimental: In order to further increase the dissolution performance of the rifamycin-nitroimidazole coupling molecule, sodium dodecyl sulfate, meglumine, VE-TPGS or Tween 80 is respectively added in the simulated gastric fluid system of pH=1.2 or the acetate buffer system of pH=4.5, to prepare the dissolution medium containing 3 mg/mL of functional excipient. About 100 mg (or 20 mg) of rifamycin-nitroimidazole coupling molecules are weighed and put into a 1.5 ml high-performance liquid phase bottle, 1 ml of simulated gastric fluid of pH 1.2 (or acetate buffer of pH 4.5) containing functional excipient is added, and the rifamycin-nitroimidazole coupling molecules are put into a constant temperature mixing instrument at 37° C., the rotation speed is 700 rpm, and after 120 minutes, 500 μl of liquid is taken into a centrifuge tube and centrifuged at 14,000 rpm for 5 min. The supernatant liquid is centrifuged again in the same condition, and the supernatant liquid after twice centrifugation is taken into the liquid phase bottle, and diluted to a proper amount of times with acetonitrile as the solution to be tested, a high performance liquid chromatograph is injected to record a chromatogram, and the concentration is calculated by a peak area using an external standard method.

[5] = Dissolution of binary solid dispersion film in acetate buffer of pH 4.5; settings: for Drug Concentration: acetate buffer pH 4.5, 25° C.
Experimental: as §1, §2

[6] = Approximate solubility of the coupling molecule in spray drying solvents; settings: organic solvent or mixture, thermodynamic from solid
Experimental: In this embodiment, the solvent is firstly screened and determined: the solvent comprises one or a combination of more of methanol, ethanol, acetone, ethyl acetate, tetrahydrofuran and dichloromethane. About 10 mg of rifamycin-nitroimidazole coupling molecules are weighed into a 1.5 mL liquid phase bottle, and appropriate volumes of different solvents are added respectively to observe and judge whether the coupling molecule is completely dissolved and judge approximate solubility of the coupling molecule.

[7] = simulated gastric fluid pH 1.2, no functional excipient
[8] = acetate buffer pH 4.5, Meglumine
[9] = acetate buffer pH 4.5, no functional excipient
[10] = simulated gastric fluid pH 1.2, SLS
[11] = simulated gastric fluid pH 1.2, Tween80
[12] = simulated gastric fluid pH 1.2, VE-TPGS

CO[C@H]1/C=C/O[C@@]2(C)Oc3c(C)c(O)c4c(c3C2=O)C2=NC3(CCN(CCn5c([N+](=O)[O-])cnc5C)CC3)NC2=C(NC(=O)/C(C)=C\C=C\[C@H](C)[C@H](O)[C@@H](C)[C@@H](O)[C@@H](C)[C@H](OC(C)=O)[C@@H]1C)C4=O [API]
pH ([1]; dissolution medium): 2.0 | Phenomenon [1]: Clear | Drug Concentration ([1]; 0 min): 10.0 mg/mL | Drug Concentration ([1]; 10 min): 46.4 mg/mL | Drug Concentration ([1]; 30 min): 54.7 mg/mL | Drug Concentration ([1]; 60 min): 53.5 mg/mL | Phenomenon [2]: Inhomogeneous | Drug Concentration ([2]; 10 Min): 0.21 mg/mL | Drug Concentration ([2]; 20 Min): 0.17 mg/mL | Drug Concentration ([2]; 40 Min): 0.19 mg/mL | Drug Concentration ([2]; 60 Min): 0.18 mg/mL | Drug Concentration ([2]; 90 Min): 0.18 mg/mL | Drug Concentration ([2]; 120 Min): 0.18 mg/mL | Drug Concentration ([2]; 180 Min): 0.16 mg/mL | pH ([2]; dissolution medium): 4.47 | Two-hour Dissolution Rate ([3]; 100 mg API + 1 mL simulated gastric fluid pH 1.2, no functional excipient, 37° C.): 9.8 mg/mL | Final pH [3, 7]: 2.5 | Two-hour Dissolution Rate ([4]; 20 mg API + 1 mL acetate buffer pH 4.5, Meglumine 3 mg/mL): 0.10 mg/mL | Two-hour Dissolution Rate ([4]; 20 mg API + 1 mL acetate buffer pH 4.5, SLS 3 mg/mL): 0.06 mg/mL | Two-hour Dissolution Rate ([4]; 20 mg API + 1 mL acetate buffer pH 4.5, Tween80 3 mg/mL): 0.61 mg/mL | Two-hour Dissolution Rate ([4]; 20 mg API + 1 mL acetate buffer pH 4.5, VE-TPGS 3 mg/mL): 0.84 mg/mL | Two-hour Dissolution Rate ([4]; 20 mg API + 1 mL acetate buffer pH 4.5, no functional excipient): 0.15 mg/mL | Two-hour Dissolution Rate ([4]; 100 mg API + 1 mL simulated gastric fluid pH 1.2, SLS 3 mg/mL): 6.7 mg/mL | Two-hour Dissolution Rate ([4]; 100 mg API + 1 mL simulated gastric fluid pH 1.2, Tween80 3 mg/mL): 11.7 mg/mL | Two-hour Dissolution Rate ([4]; 100 mg API + 1 mL simulated gastric fluid pH 1.2, VE-TPGS 3 mg/mL): 11.5 mg/mL | Final pH [4, 8]: 4.91 | Physical Appearance [4, 8]: Suspension | Final pH ([4]; acetate buffer pH 4.5, SLS): 4.65 | Physical Appearance ([4]; acetate buffer pH 4.5, SLS): Suspension | Final pH ([4]; acetate buffer pH 4.5, Tween80): 4.46 | Physical Appearance ([4]; acetate buffer pH 4.5, Tween80): Suspension | Final pH ([4]; acetate buffer pH 4.5, VE-TPGS): 4.45 | Physical Appearance ([4]; acetate buffer pH 4.5, VE-TPGS): Suspension | Final pH [4, 9]: 4.45 | Physical Appearance [4, 9]: Suspension | increase of two-hour dissolution rate compared to API powder control ([4]; Tween-80): 4 times | increase of two-hour dissolution rate compared to API powder control ([4]; VE-TPGS): 6 times | Final pH [4, 10]: 2.72 | Physical Appearance [4, 10]: Suspension | Final pH [4, 11]: 2.60 | Physical Appearance [4, 11]: Suspension | Final pH [4, 12]: 2.60 | Physical Appearance [4, 12]: Suspension | Physical Appearance [4, 7]: Suspension | Phenomenon ([5]; acetate buffer pH 4.5): Clear solution, incomplete dissolved film | Drug Concentration ([5]; 0 min): 0.01 mg/mL | Drug Concentration ([5]; 10 min): 0.29 mg/mL | Drug Concentration ([5]; 30 min): 0.34 mg/mL | Drug Concentration ([5]; 60 min): 0.37 mg/mL | pH ([5]; dissolution medium, acetate buffer pH 4.5): 4.5 | solubility ([6]; acetone, read-out: Approximate Solubility): > 300 mg/mL | solubility ([6]; dichloromethane, read-out: Approximate Solubility): > 300 mg/mL | solubility ([6]; ethanol, read-out: Approximate Solubility): 167 to 200 mg/mL | solubility ([6]; ethyl acetate, read-out: Approximate Solubility): 167 to 200 mg/mL | solubility ([6]; methanol, read-out: Approximate Solubility): > 300 mg/mL | solubility ([6]; various common spray drying solvents, read-out: Solubility): > 100 mg/mL | solubility ([6]; tetrahydrofuran, read-out: Approximate Solubility): > 200 mg/mL
